The text below walks through data of US10220025B1, “Self-emulsifying formulation of CARP-1 functional mimetics” (Florida A&M University, priority 2016, dated 2019).

Usually GI50 stands for the concentration at which growth is held to half of that of the control.

One data set relates to TNBC and NSCLC cells. The note with it: cited from earlier work.
The test system of data set [1] is MDA-MB-468 TNBC cells, wild type. The data set can be described thus: MTT viability assay, parental MDA-MB-468. The note with it: for inhibition of viability compared with CFM-4: 20 μM, 24 h, FIG. 3A. Type of data set: cell-based, human. For orientation: Tetrazolium assays rely on reduction of a dye to a coloured formazan, in cell work by metabolically active cells.
Protocol: (§2) In vitro inhibition of cell growth was assessed by MTT (3-[4, 5-dimethyltiazol-2-yl]-2.5-diphenyl tetrazolium bromide) reagent. Cells (5×10^3) were seeded in a 96-well culture plate and subsequently treated with respective agents at different concentrations as mentioned. Control cells were treated with 0.1% DMSO in culture medium. After treatment, the cells were incubated with 1 mg/ml of MTT reagent at 37° C. for 2-4 hours and then MTT was removed and 50 μL of DMSO was added, followed by colorimetric analysis using a multi-label plate reader at 560 nm (Victor3; PerkinElmer, Wellesley, Mass., USA).

The subject of the next data set is TNBC cells. Put plainly: MTT viability assay, parental TNBC cells (lines not singled out). Type of data set: cell-based.
Data set [2] concerns HeLa cervical cancer cells. Put plainly: MTT viability assay, HeLa. Type of data set: cell-based. To be noted: 20 μM; 24 h; FIG. 3A. The text has this: The current inventors' previous studies have indicated cancer cell growth inhibitory properties of CFMs in particular CFM-4 and CFM-5 [Puliyappadamba et al.]. […] J. Biomed. Nanotechnol. 2015; 11:1608-1627]. […] J. Biomed. Nanotechnol. 2015; 11:1608-1627]. On the basis of these findings, it was speculated that solubility and/or potency of the CFM-4 scaffold could be improved for its utility as a novel anti-TNBC molecule. To address this possibility, twelve (12) additional analogs of CFM-4 (Table 2) were synthesized using medicinal chemistry based structure activity relationship (SAR) studies. Each of the analog was suspended in DMSO, and their potency was evaluated in cell culture studies utilizing HeLa cervical cancer, MDA-MB-468 TNBC, and H2461 malignant pleural mesothelioma (MPM) cells by MTT based assays. […] Moreover, a 10 μM dose of CFM-4 inhibited MDA-MB-231 and MDA-MB-468 viabilities by ˜30% and 45%, respectively.

A further data set can be described thus: solubility observations. Type of data set: physicochemical.
Data set [3] concerns parental and drug-resistant TNBC and SKBR-3 cells. The data set can be described thus: soft-agar clonogenic assay. It is filed as cell-based. To be noted: 10 μM; FIGS. 11D, 12C, 12D, 13C. The protocol: A soft-agar sandwich assay was performed. Cells were sandwiched between 0.6% and 0.3% agarose in DMEM medium containing 5% FBS in a six-well chamber (500 cells/chamber), and treated with buffer (Control), or respective agent for noted time and dose at 37° C. humidified CO2 incubator. The colonies from multiple random fields were counted, compared to control and photographed essentially as described before [Jamal S, Cheryan V T, Muthu M, Munie S, Levi E, Ashour A E, Pass H I, Wali A, Singh M, Rishi A K. CARP-1 functional mimetics are a novel class of small molecule inhibitors of malignant pleural mesothelioma cells. PLos One. 2014; 9:e891; Ashour A E, Jamal S, Cheryan V T, Muthu M, Zoheir K M A, Alafeefy A M, Abd-allah A R, Levi E, Tarca A L, Polin L A, Rishi A K. CARP-1 functional mimetics: A novel class of small molecule inhibitors of medulloblastoma cell growth. PLoS One. 2013; 8:e66733; Zhang L, Levi E, Majumder P, Yu Y, Aboukameel A, Du J, Xu H, Mohammad R M, Hatfield J S, Wali A, Adsay V, Majumdar A P N, Rishi A K. Transactivator of transcription tagged cell cycle and apoptosis regulatory protein-1 peptides suppress growth of human breast cancer cells in vitro and in vivo. Mol Cancer Ther. 2007; 6:1661-1672].

The subject of data set [4] is Adriamycin-resistant (ADR-R) MDA-MB-468 sublines. The data set can be described thus: MTT viability assay, ADR-resistant MDA-MB-468 sublines. It is filed as cell-based, human. To be noted: ADR-resistant MDA-MB-468 subline 1; FIG. 5E. The protocol: (§1) Human TNBC MDA-MB-468 and MDA-MB-231, and mouse TNBC 4T1 cells were cultured in the chronic presence (>10 months) of Doxorubicin. The parental, wild-type cells were initially treated with 200 nM Doxorubicin for 2-3 weeks, followed by escalation to 400 nM, 1 μM, and 2 μM doses over a period of 3-4 weeks for each dose till resistance developed and the cells became well adapted to growth in […] of Doxorubicin for their routine culture. In the case of Cisplatin however, the human TNBC MDA-MB-468 and MDA-MB-231 were initially cultured in continuous presence of 1 μM Cisplatin for 3-4 weeks, and the dose was escalated to 1.5 μM and 3 μM over periods of 3-4 weeks for each dose till resistance developed and cells became adapted to routine culture in 3 μM dose. Subsequent, routine maintenance of the resistant cells in the presence of the respective drug was continued and multiple, resistant sublines for each of the TNBC cells were isolated and characterized for their growth inhibitory (GI)50 dose of respective therapeutic by the MTT-based viability assays as below.

The subject of data set [5] is TNBC and non-small cell lung cancer cell-derived xenografts. To be noted: SCID mice; cited from earlier work.
The next data set deals with HUVECs. Put plainly: in vitro tubule formation (angiogenesis) assay. To be noted: 12 hours; FIG. 11A. It is filed as cell-based, human. As for the experimental part: The growth of tubules was monitored over a period of 12 hours. The cells growth in the scratch assay was recorded by photography. Representative photomicrographs of control and treated cells are presented.
It was next investigated whether CFM-4.16 inhibited TNBC cell migration and growth as colonies in soft agar and 3-dimensional cultures in vitro. In addition, an in vitro tubule formation assay was conducted to determine anti-angiogenic properties of CFM-4.16. […] Moreover, treatments with CFM-4 or CFM-4.16 prevented the parental as well as drug (ADR- or cisplatin-) resistant TNBC sublines and the parental and Herceptin-resistant, Her-2-positive SKBR-3 cells from growing in the areas of wound caused by a scratch (FIGS. 11B, 11C, 12A, 12B, 13A, and 13B).

Data set [6] relates to MDA-MB-231 TNBC cells, wild type. Put plainly: MTT viability assay, parental MDA-MB-231. Type of data set: cell-based, human.
Protocol: as §2
Data set [7] deals with parental and drug-resistant TNBC and SKBR-3 cells. Put plainly: scratch/wound healing cell migration assay. To be noted: FIGS. 11B, 11C, 12A, 12B, 13A, 13B. Type of data set: cell-based. As for the experimental part: The TNBC cells migration in the absence or presence of CFMs was measured by the “scratch/wound healing” assay. Cells were seeded in a 6-well plate (˜10,000 cells/well), and when attached, a scratch was created in the cell monolayer using sterile pipette tip. The cells were then allowed to continue growing in the absence (Control) or presence of noted dose of each of the agents for indicated time periods. The cells were photographed at the beginning and at regular intervals during the treatment period, and the images from control cells were compared with the treated cells to determine the migration of the cells essentially as described before [Liang C C, Park A Y, Guan J L In vitro scratch assay: a convenient and inexpensive method for analysis of cell migration in vitro. Nat Protoc. 2007; 2:329-33]. The photomicrographs of the cells were recorded under different magnifications utilizing Zeiss microscope with attached 35 mm camera.

The test system of data set [8] is Src, MET, and STAT3 kinases in TNBC cells. The data set can be described thus: Western blot, oncogenic tyrosine kinases. It is filed as cell-based. To be noted: parental and drug-resistant human and murine TNBC cells. A general note: A western blot detects proteins with antibodies after separation by electrophoresis.
Protocol: For protein expression analysis, Western blot (WB) experiments were performed according to the standard procedures. The cells were either untreated or treated with various agents either alone or in combinations as indicated. Following treatment durations, the cells were lysed in cell lysis (10×) buffer (#9803; cell signaling) containing 0.1% of protease and phosphatase inhibitor cocktail (Sigma) for 20 min at 4° C. The lysates were centrifuged at 14,000 rpm at 4° C. for 15-20 min to remove debris. Protein concentrations of whole cell lysates were determined using the Protein Assay Kit. Supernatant proteins, 50-100 μg from each sample, were separated by SDS-polyacrylamide gel electrophoresis (SDS-PAGE) and transferred to polyvinylidene difluoride (PVDF) membrane (Bio-rad, Hercules, Calif.) by standard procedures. […] The antibody-bound proteins were visualized by treatment with the chemiluminescence detection reagent according to manufacturer's instructions, followed by exposure to X-ray film (Denville Scientific Inc.). The same membranes were re-probed with the anti-β-actin or anti-α-tubulin antibody, which was used as an internal control for protein loading.
Data set [9] relates to Cisplatin-resistant (Cis-R) MDA-MB-468 sublines. Put plainly: MTT viability assay, Cisplatin-resistant MDA-MB-468 sublines. Type of data set: cell-based, human. The protocol:
as §1

Data set [10] concerns Cisplatin-resistant (Cis-R) MDA-MB-231 sublines. The data set can be described thus: MTT viability assay, Cisplatin-resistant MDA-MB-231 sublines. It is filed as cell-based, human. As for the experimental part:
as §1

In data set [11] the test system is 4T1 TNBC cells, wild type. Put plainly: MTT viability assay, parental 4T1. It is filed as cell-based, mouse. To be noted: FIG. 10; single agent.
Protocol: as §2
Data set [12] relates to parental and drug-resistant human TNBC cells. To be noted: human, 12 h. As for the experimental part:
Control cells were treated with 0.1% DMSO in culture medium.

Structures are written as SMILES. “Also recorded” adds a separate entry of the source. Like-named read-outs stand apart in the source and are kept apart here. A value given as a limit tells only on which side of the number the result lay.

Regarding `O=C1N(Cc2cccc3ccccc23)c2ccccc2C12NN=C(c1ccccc1)S2` (stereo not shown) [CFM-4.6], the “growth of TNBC and NSCLC cells” value in the data set on TNBC and NSCLC cells is reported as “inhibited growth”.
Turning to `O=C1N(Cc2ccc3ccccc3c2)c2ccccc2C12NN=C(c1ccccc1)S2` (stereo not shown) [CFM-4.8], the “inhibition of viability compared with CFM-4” value in [1] is listed as “greater inhibition of viability”.
Take `COc1ccc2c(c1)C1(NN=C(c3ccccc3)S1)C(=O)N2Cc1ccccc1Cl` (stereo not shown) [CFM-4.11]: in [1], the “inhibition of viability compared with CFM-4” value was “greater inhibition of viability”.
In the case of `COc1cccc(C2=NNC3(S2)C(=O)N(Cc2ccccc2Cl)c2ccccc23)c1` (stereo not shown) [CFM-4.17], in the data set on TNBC cells (SAR screen of twelve analogs), the “activity relative to parent compound CFM-4 or other analogs” value was “superior”. Further, the “inhibition of viability compared with CFM-4” value in data set [2] and in data set [1] was “greater inhibition of viability” throughout.
As to `O=C1N(Cc2ccccc2Cl)c2ccccc2C12NN=C(c1ccccc1)S2` (stereo not shown) [CFM-4], the aqueous solubility entry in the data set “solubility observations” was “poor aqueous solubility”. Also, in data set [3], the “colonies formed in soft agar” value was “significant reduction in size and number of colonies”. Moreover, the “effect of siRNA-mediated depletion of CARP-1 on growth inhibition by the compound” value in [4] is on record as “interfered with growth inhibition”. Also, in data set [5], the “xenograft growth inhibition / T/C, intravenous DMSO+cremophor preparation” value is recorded as “failed to inhibit growth; also recorded: lack therapeutic T/C values”. For the same molecule, the “growth of TNBC and NSCLC cells” value in the data set with TNBC and NSCLC cells is reported as “inhibited growth”. Also, the “tubule formation by HUVECs compared with untreated control” value with HUVECs is listed as “disruption of tubule formation”. For the same molecule, the “inhibition / loss of cell viability” value in data set [6] (10 μM dose) was approximately 30%; in data set [1] (10 μM dose), approximately 45%. In addition, in data set [7], the “growth of cells in the areas of wound caused by a scratch” value is on record as “prevented”. Further, the “activation and/or expression of MET and Src tyrosine kinases” value in data set [8] is recorded as “reduced activation and/or expression”.
Consider `N.N.[Cl][Pt][Cl]` [Cisplatin], for which the concentration for 50% growth inhibition (GI50) in data set [9] (72 h, Cis-R Clone 1-2, read-out: GI50) was approximately 6.6 µM; in data set [9] (72 h, Cis-R Clone 3, read-out: GI50) it was approximately 12 µM; in data set [9] (72 h, Cis-R Clones 4-6, read-out: GI50), approximately 15 µM; in data set [9] (read-out: GI50 dose, Cisplatin-resistant MDA-MB-468 sublines) it was 6 to 15 µM; in data set [10] (72 h, Cis-R Clones 1-6, read-out: GI50) it was not below 150 µM; in data set [10] (read-out: GI50 dose, Cisplatin-resistant MDA-MB-231 sublines), not below 150 µM. Besides, the GI50 was approximately 1.65 µM with TNBC cells (72 h treatment period, read-out: GI50 doses, both the parental TNBC cell lines); 1.65 µM in the data set with TNBC cells (parental cells, read-out: GI50 dose, parental cells); approximately 1.65 µM in data set [6] (72 h, Wild type); approximately 1.65 µM in data set [1] (72 h, Wild type). Moreover, in [9] (cisplatin-resistant MDA-MB-468 vs parental), the “GI50 dose higher than wild-type, parental cells” value was 4-9 fold. Moreover, in [10] (cisplatin-resistant MDA-MB-231 vs parental), the “GI50 dose higher than wild-type, parental counterparts” value is not below 90 fold.
Take `Cc1nc(Nc2ncc(C(=O)Nc3c(C)cccc3Cl)s2)cc(N2CCN(CCO)CC2)n1` [Dasatinib]: the “reduction / loss of viability” value in [11] was approximately 60%. In data set [12], the “loss of viability, single agent” value is 20-40%.
`O=C1NC(=O)[C@@H](c2cn3c4c(cccc24)CCC3)[C@@H]1c1c[nH]c2ccccc12` [Tivatinib]: the “loss of viability, single agent” value in data set [12] was 20-40%.
